Laboratory results as given in patent US20050032873A1, “3-Amino chroman and 2-amino tetralin derivatives” (Wyeth, priority 2003, published 2005).
Where a name gives a salt, the structure may show the parent alone.

Row | melting point | Compound
1 | 138 °C (dec.) | CNC(=O)c1ccc(F)c2c1CC(N(CCc1c[nH]c3ccc(F)cc13)CC1CC1)CO2 (centres unmarked) (as salt: hydrochloride) [Compound 86, 3-{(cyclopropylmethyl)[2-(5-fluoro-1H-indol-3-yl)ethyl]amino}-8-fluoro-N-methylchromane-5-carboxamide]
2 | 131 °C (dec.) | CNC(=O)c1ccc(F)c2c1CC(N(CCc1c[nH]c3ccc(F)cc13)C1CCC1)CO2 (centres unmarked) (as salt: hydrochloride) [Compound 87, 3-{cyclobutyl[2-(5-fluoro-1H-indol-3-yl)ethyl]amino}-8-fluoro-N-methylchromane-5-carboxamide]
3 | 148 °C (dec.) | CNC(=O)c1ccc(F)c2c1CC(NCCCc1c[nH]c3ccc(F)cc13)CO2 (centres unmarked) (as salt: hydrochloride) [Compound 88, 8-fluoro-3-{[3-(5-fluoro-1H-indol-3-yl)propyl]amino}-N-methylchromane-5-carboxamide]
4 | 118 °C (dec.) | CCN(CCCc1c[nH]c2ccc(F)cc12)C1COc2c(F)ccc(C(=O)NC)c2C1 (centres unmarked) (as salt: hydrochloride) [Compound 89, 3-{ethyl[3-(5-fluoro-1H-indol-3-yl)propyl]amino}-8-fluoro-N-methylchromane-5-carboxamide]
5 | 120 °C (dec.) | CNC(=O)c1ccc(F)c2c1CC(N(CCCc1c[nH]c3ccc(F)cc13)CC1CC1)CO2 (centres unmarked) (as salt: hydrochloride) [Compound 91, 3-{(cyclopropylmethyl)[3-(5-fluoro-1H-indol-3-yl)propyl]amino}-8-fluoro-N-methylchromane-5-carboxamide]
6 | 130 °C (dec.) | CNC(=O)c1ccc(F)c2c1CC(NCCCCc1c[nH]c3ccc(F)cc13)CO2 (centres unmarked) (as salt: hydrochloride) [Compound 92, 8-fluoro-3-{[4-(5-fluoro-1H-indol-3-yl)butyl]amino}-N-methylchromane-5-carboxamide]
7 | 110 °C (dec.) | CCCN(CCCCc1c[nH]c2ccc(F)cc12)C1COc2c(F)ccc(C(=O)NC)c2C1 (centres unmarked) (as salt: hydrochloride) [Compound 93, 8-fluoro-3-[[4-(5-fluoro-1H-indol-3-yl)butyl](propyl)amino]-N-methylchromane-5-carboxamide]
8 | 112 °C (dec.) | CNC(=O)c1ccc(F)c2c1CC(N(CCCCc1c[nH]c3ccc(F)cc13)CC1CC1)CO2 (centres unmarked) (as salt: hydrochloride) [Compound 94, 3-{(cyclopropylmethyl)[4-(5-fluoro-1H-indol-3-yl)butyl]amino}-8-fluoro-N-methylchromane-5-carboxamide]
9 | 123 °C (dec.) | CNC(=O)c1ccc(F)c2c1CC(N(CCCCc1c[nH]c3ccc(F)cc13)C1CCC1)CO2 (centres unmarked) (as salt: hydrochloride) [Compound 95, 3-{cyclobutyl[4-(5-fluoro-1H-indol-3-yl)butyl]amino}-8-fluoro-N-methylchromane-5-carboxamide]
10 | 160 to 167 °C (dec.) | N#Cc1ccc2[nH]cc(CCCN(CC3CC3)[C@H]3COc4c(F)ccc(C(N)=O)c4C3)c2c1 (as salt: hydrochloride) [Compound 98b, (3R)-3-[[3-(5-cyano-1H-indol-3-yl)propyl](cyclopropylmethyl)amino]-8-fluorochromane-5-carboxamide]
11 | 152 to 158 °C (dec.) | COc1cccc2c(CCCN(CC3CC3)C3COc4c(F)ccc(C(N)=O)c4C3)c[nH]c12 (centres unmarked) (as salt: hydrochloride) [Compound 103, 3-{(cyclopropylmethyl)[3-(7-methoxy-1H-indol-3-yl)propyl]amino}-8-fluorochromane-5-carboxamide]
12 | 154 to 162 °C (dec.) | CCN(CCCc1c[nH]c2ccc(OC)cc12)C1COc2c(F)ccc(C(N)=O)c2C1 (centres unmarked) (as salt: hydrochloride) [Compound 105, 3-{ethyl[3-(5-methoxy-1H-indol-3-yl)propyl]amino}-8-fluorochromane-5-carboxamide]
13 | 148 to 154 °C (dec.) | COc1ccc2[nH]cc(CCCN(CC3CC3)C3COc4c(F)ccc(C(N)=O)c4C3)c2c1 (centres unmarked) (as salt: hydrochloride) [Compound 108, 3-{(cyclopropylmethyl)[3-(5-methoxy-1H-indol-3-yl)propyl]amino}-8-fluorochromane-5-carboxamide]
14 | 147 to 155 °C (dec.) | NC(=O)c1ccc(F)c2c1CC(N(CCCc1c[nH]c3c(Cl)cccc13)CC1CC1)CO2 (centres unmarked) (as salt: hydrochloride) [Compound 112, 3-[[3-(7-chloro-1H-indol-3-yl)propyl](cyclopropylmethyl)amino]-8-fluorochromane-5-carboxamide]
15 | 149 to 156 °C (dec.) | CCN(CCCc1c[nH]c2ccc(Cl)cc12)C1COc2c(F)ccc(C(N)=O)c2C1 (centres unmarked) (as salt: hydrochloride) [Compound 115, 3-[[3-(5-chloro-1H-indol-3-yl)propyl](ethyl)amino]-8-fluorochromane-5-carboxamide]

More lines, now with the values behind:

Row | Compound | melting point
16 | CNC(=O)c1ccc(F)c2c1CC(NCCc1c[nH]c3ccc(F)cc13)CO2 (centres unmarked) (as salt: hydrochloride) [Compound 84, 8-fluoro-3-{[2-(5-fluoro-1H-indol-3-yl)ethyl]amino}-N-methylchromane-5-carboxamide] | 148 °C (dec.)
17 | CCN(CCc1c[nH]c2ccc(F)cc12)C1COc2c(F)ccc(C(=O)NC)c2C1 (centres unmarked) (as salt: hydrochloride) [Compound 85, 3-{ethyl[2-(5-fluoro-1H-indol-3-yl)ethyl]amino}-8-fluoro-N-methylchromane-5-carboxamide] | 125 °C (dec.)
18 | CCCN(CCCc1c[nH]c2ccc(F)cc12)C1COc2c(F)ccc(C(=O)NC)c2C1 (centres unmarked) (as salt: hydrochloride) [Compound 90, 8-fluoro-3-[[3-(5-fluoro-1H-indol-3-yl)propyl](propyl)amino]-N-methylchromane-5-carboxamide] | 123 °C (dec.)
19 | N#Cc1ccc2[nH]cc(CCCN(C3CCC3)[C@@H]3COc4c(F)ccc(C(N)=O)c4C3)c2c1 (as salt: hydrochloride) [Compound 97a, (3S)-3-[[3-(5-cyano-1H-indol-3-yl)propyl](cyclobutyl)amino]-8-fluorochromane-5-carboxamide] | 170 to 177 °C (dec.)
20 | N#Cc1ccc2[nH]cc(CCCN(C3CCC3)[C@H]3COc4c(F)ccc(C(N)=O)c4C3)c2c1 (as salt: hydrochloride) [Compound 97b, (3R)-3-[[3-(5-cyano-1H-indol-3-yl)propyl](cyclobutyl)amino]-8-fluorochromane-5-carboxamide] | 166 to 171 °C (dec.)
21 | COc1cccc2c(CCCNC3COc4c(F)ccc(C(N)=O)c4C3)c[nH]c12 (centres unmarked) (as salt: hydrochloride) [Compound 99, 8-fluoro-3-{[3-(7-methoxy-1H-indol-3-yl)propyl]amino}chromane-5-carboxamide] | 196 to 198 °C
22 | CCCN(CCCc1c[nH]c2c(OC)cccc12)C1COc2c(F)ccc(C(N)=O)c2C1 (centres unmarked) (as salt: hydrochloride) [Compound 100, 8-fluoro-3-[[3-(7-methoxy-1H-indol-3-yl)propyl](propyl)amino]chromane-5-carboxamide] | 158 to 164 °C (dec.)
23 | CCN(CCCc1c[nH]c2c(OC)cccc12)C1COc2c(F)ccc(C(N)=O)c2C1 (centres unmarked) (as salt: hydrochloride) [Compound 101, 3-{ethyl[3-(7-methoxy-1H-indol-3-yl)propyl]amino}-8-fluorochromane-5-carboxamide] | 148 to 153 °C (dec.)
24 | COc1cccc2c(CCCN(C3CCC3)C3COc4c(F)ccc(C(N)=O)c4C3)c[nH]c12 (centres unmarked) (as salt: hydrochloride) [Compound 102, 3-{cyclobutyl[3-(7-methoxy-1H-indol-3-yl)propyl]amino}-8-fluorochromane-5-carboxamide] | 156 to 162 °C (dec.)
25 | COc1ccc2[nH]cc(CCCNC3COc4c(F)ccc(C(N)=O)c4C3)c2c1 (centres unmarked) (as salt: hydrochloride) [Compound 104, 8-fluoro-3-{[3-(5-methoxy-1H-indol-3-yl)propyl]amino}chromane-5-carboxamide] | 171 to 176 °C (dec.)
26 | CCCN(CCCc1c[nH]c2ccc(OC)cc12)C1COc2c(F)ccc(C(N)=O)c2C1 (centres unmarked) (as salt: hydrochloride) [Compound 106, 8-fluoro-3-[[3-(5-methoxy-1H-indol-3-yl)propyl](propyl)amino]chromane-5-carboxamide] | 145 to 152 °C (dec.)
27 | COc1ccc2[nH]cc(CCCN(C3CCC3)C3COc4c(F)ccc(C(N)=O)c4C3)c2c1 (centres unmarked) (as salt: hydrochloride) [Compound 107, 3-{cyclobutyl[3-(5-methoxy-1H-indol-3-yl)propyl]amino}-8-fluorochromane-5-carboxamide] | 151 to 158 °C (dec.)
28 | NC(=O)c1ccc(F)c2c1CC(NCCCc1c[nH]c3c(Cl)cccc13)CO2 (centres unmarked) (as salt: hydrochloride) [Compound 109, 3-{[3-(7-chloro-1H-indol-3-yl)propyl]amino}-8-fluorochromane-5-carboxamide] | 222 to 224 °C
29 | CCN(CCCc1c[nH]c2c(Cl)cccc12)C1COc2c(F)ccc(C(N)=O)c2C1 (centres unmarked) (as salt: hydrochloride) [Compound 110, 3-[[3-(7-chloro-1H-indol-3-yl)propyl](ethyl)amino]-8-fluorochromane-5-carboxamide] | 146 to 152 °C (dec.)
30 | NC(=O)c1ccc(F)c2c1CC(N(CCCc1c[nH]c3c(Cl)cccc13)C1CCC1)CO2 (centres unmarked) (as salt: hydrochloride) [Compound 111, 3-[[3-(7-chloro-1H-indol-3-yl)propyl](cyclobutyl)amino]-8-fluorochromane-5-carboxamide] | 154 to 163 °C (dec.)
31 | CCCN(CCCc1c[nH]c2c(Cl)cccc12)C1COc2c(F)ccc(C(N)=O)c2C1 (centres unmarked) (as salt: hydrochloride) [Compound 113, 3-[[3-(7-chloro-1H-indol-3-yl)propyl](propyl)amino]-8-fluorochromane-5-carboxamide] | 145 to 154 °C (dec.)
32 | NC(=O)c1ccc(F)c2c1CC(NCCCc1c[nH]c3ccc(Cl)cc13)CO2 (centres unmarked) (as salt: hydrochloride) [Compound 114, 3-{[3-(5-chloro-1H-indol-3-yl)propyl]amino}-8-fluorochromane-5-carboxamide] | 218 to 221 °C
